Measurements as given in patent US6140311A, “Therapy by intrathecal administration of antitumor agent FUDR” (priority 1997, dated 2000).

How the values were obtained:
meningeal carcinomatosis = settings: intrathecal MTX; cited from earlier work
203 glioma cells = test: In vivo antitumor effect of intrathecal FUDR in mouse meningeal carcinomatosis model; parameters: species or system C57/BL6 mice; settings: daily for 5 consecutive days, control group all dead
Protocol: Six-week-old C57/BL6 mice divided into groups of 22 or 23 were used to prepare models of meningeal carcinomatosis by directly puncturing the cisterna magna with a 26-gauge needle under anesthesia with ethyl ether and injecting transplantable 203 glioma cells (5×10^5 cells/0.05 ml). The mice were given a specified dose of FUDR by intrathecal injection (0, 25, 50, 100 or 250 μg/0.05 ml/head) daily for 5 consecutive days following the day of transplant.

[1] = Toxicity of intrathecal FUDR in normal mice (body weight, symptoms, brain histology); assay type: in vivo, C57/BL6 mice; settings: for body weight variation: days 0, 2, 4, 6
Protocol: Normal C57/BL6 mice divided into groups of 20 were given FUDR by intrathecal injection at a specified dose (0, 10, 25, 50 or 100 μg/0.05ml/head) on the day of start of the experiment, 2 days, 4 days and 6 days after the start. Two months after the completion of administration of the drug, the mice were all sacrificed, and brain tissues were collected, followed by hematoxylin & eosin staining and Kluver Barrera staining for histological investigation.

[2] = system: meningeal dissemination of malignant tumours; test: Clinical results of intrathecal chemotherapy with FUDR via Ommaya reservoir;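 further: 13 patients with meningeal spread from various primary tumours, treatment length adjusted to disease symptoms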
Protocol: The drug was given at a dose of 1 to 10 μg/body a day, three times a week. The period of administration was varied from 3 to 8 weeks in accordance with the symptoms of the disease.

[3] = high-dose group 100 μg/0.05 ml intrathecal
[4] = 1 to 10 μg/body a day intrathecal, three times a week, 3 to 8 weeks
[5] = per patient, before→after, CSF obtained by anterial horn of lateral ventricle
[6] = per patient, 1 to 10 μg/body a day intrathecal, three times a week, 3 to 8 weeks

CN(Cc1cnc2nc(N)nc(N)c2n1)c1ccc(C(=O)N[C@@H](CCC(=O)O)C(=O)O)cc1 [MTX, methotrexate]
side effects limiting the dose (meningeal carcinomatosis): Acute neurotoxicity and retarded necrotizing encephalopathy

O=c1[nH]c(=O)n([C@H]2C[C@H](O)[C@@H](CO)O2)cc1F [FUDR, 5-fluoro-deoxyuridine]
survivors on day 14 postimplantation (203 glioma cells; 100 μg/0.05 ml/head intrathecal): 21 survivors among 22 animals
survivors on day 14 postimplantation (203 glioma cells; 250 μg/0.05 ml/head intrathecal): 21 survivors among 22 animals
neurotic manifestation during and after administration ([1]; all dose groups 10-100 μg/0.05 ml intrathecal): none of the mice developed neurotic manifestation
histological changes in cranial nerve tissues (hematoxylin & eosin, Kluver Barrera staining) ([1]; high-dose (100 μg/0.05 ml) group, two months after completion of administration): none of the mice exhibited abnormalities in the cranial nerve tissues
side effects such as diarrhea [1, 3]: free of side effects such as frequent diarrhea
body weight variation [1, 3]: transient weight decrease
body weight variation ([1]; medium-dose group 50 μg/0.05 ml intrathecal): no weight decrease whatever
body weight variation ([1]; small-dose group 10 μg/0.05 ml intrathecal): no weight decrease whatever
body weight variation ([1]; small-dose group 25 μg/0.05 ml intrathecal): no weight decrease whatever
efficacy, summary of 13 patients [2, 4]: diminutions of tumor marker, CSF cells and protein in CSF
side effects, summary of 13 patients [2, 4]: none of side effects such as toxicity to the digestive tracts, neurotoxicity, myelosuppression, and dysfunction of the liver and kidney
Cell numbers Ventricular CSF [2, 5]: 50.fwdarw
Protein Ventricular CSF [2, 5]: 147.fwdar
Cell numbers Spinal CSF ([2]; per patient, before→after, CSF obtained by lumbar puncture): 144.fwdar
Response on CSF findings [2, 6]: No and Response and No Response
Side effects [2, 6]: None
